Test results from ChEMBL document CHEMBL5331062, “2,6-Difluorobenzamide derivatives as store-operated calcium channel (SOC) inhibitors” (Eur J Med Chem, 2022).
Activity calls are given as the source filed them. No cut-off for these calls is given here.

Assays:
[1] = system: Caco-2; test: Inhibition of cell migration in human Caco-2 cells assessed as reduction in cell motility at 1 uM measured after 24 hrs by wound healing assay; format: functional, cell-based
[2] = Clearance in Sprague-Dawley rat at 2 mg/kg, iv measured upto 24 hrs by LC-MS/MS analysis; format: ADME, organism-based; details: in vivo
[3] = Volume of distribution at steady state in Sprague-Dawley rat at 2 mg/kg, iv measured upto 24 hrs by LC-MS/MS analysis; format: ADME, organism-based; details: in vivo, read-out: Vdss
[4] = Half life in Sprague-Dawley rat at 2 mg/kg, iv measured upto 24 hrs by LC-MS/MS analysis; format: ADME, organism-based; details: in vivo
[5] = Half life in Sprague-Dawley rat at 20 mg/kg, po measured upto 24 hrs by LC-MS/MS analysis; format: ADME, organism-based; details: in vivo
[6] = AUC (0 to infinity) in Sprague-Dawley rat at 2 mg/kg, iv measured upto 24 hrs by LC-MS/MS analysis; format: ADME, organism-based; design: dose 2 mg/kg, time < 24 hrs, route iv; details: in vivo
[7] = AUC (0 to infinity) in Sprague-Dawley rat at 20 mg/kg, po measured upto 24 hrs by LC-MS/MS analysis; format: ADME, organism-based; design: dose 20 mg/kg, time < 24 hrs, route po; details: in vivo
[8] = Tmax in Sprague-Dawley rat at 20 mg/kg, po measured upto 24 hrs by LC-MS/MS analysis; format: ADME, organism-based; details: in vivo
[9] = Cmax in Sprague-Dawley rat at 20 mg/kg, po measured upto 24 hrs by LC-MS/MS analysis; format: ADME, organism-based; design: dose 20 mg/kg, time < 24 hrs, route po; details: in vivo
[10] = Oral bioavailability in Sprague-Dawley rat at 20 mg/kg measured upto 24 hrs by LC-MS/MS analysis; format: ADME, organism-based; details: in vivo
[11] = system: Caco-2; test: Inhibition of cell invasion in human Caco-2 cells assessed as suppression of cell growth at 1 uM measured after 48 hrs by crystal violet staining based analysis; format: functional
[12] = system: Caco-2; test: Inhibition of cell migration in human Caco-2 cells assessed as suppression of cell growth at 1 uM measured after 48 hrs by transwell migration assay; format: functional, cell-based
[13] = system: Caco-2; test: Antiproliferative activity against human Caco-2 cells assessed as reduction in cell growth incubated for 24 hrs by WST-8 cell proliferation assay; format: functional, cell-based
[14] = system: Caco-2; test: Inhibition of SOC activity in human Caco-2 cells co-transfected with STIM1-YFP/Orai1-mCherry assessed as reduction in thapsigargin induced STIM1-Orai1 interaction at 1 uM preincubated with compound for 30 mins followed by thapsigargin induction by time-lapse TIRF-FRET assay; format: cell-based
[15] = system: Caco-2; test: Inhibition of SOC activity in human Caco-2 cells assessed as stabilization of STIM1-EB1 complex by immunoprecipitation-Western blot analysis; format: cell-based
[16] = system: Caco-2; test: Inhibition of SOC activity in human Caco-2 cells co-transfected with STIM1-YFP/Orai1-mCherry assessed as reduction in thapsigargin induced STIM1-Orai1 interaction at 1 uM preincubated with thapsigargin for 2 mins followed by compound treatment by calcium influx assay; format: cell-based
[17] = system: Caco-2; test: Inhibition of SOC activity in human Caco-2 cells co-transfected with STIM1-YFP/Orai1-mCherry assessed as reduction in thapsigargin induced STIM1-Orai1 interaction at 1 uM preincubated with thapsigargin for 2 mins followed by compound treatment by time-lapse TIRF-FRET assay; format: cell-based
[18] = system: Caco-2; test: Inhibition of SOC activity in human Caco-2 cells at 1 uM induced by thapsigargin for 5 mins followed by Ca2+ […] addition and measured after 5 mins after compound addition by Ca2+ imaging method; format: cell-based

**Q.** With `O=C(Nc1ccc(-c2cccc(Cl)c2)cn1)c1c(F)cccc1F` as the molecule, how does the inhibition [1] read?
**A.** Its inhibition is “Active”.

**Q.** What does the source list for `O=C(Nc1ccc(-c2ccc(F)cc2)cn1)c1c(F)cccc1F`?
**A.** clearance [2]: 2.4 mL/min/kg; Vd [3]: 3.9 L/kg; half-life [4]: 24 h; half-life [5]: 16 h; AUC(0-inf) [6]: 15900 ng·h/mL; AUC(0-inf) [7]: 54000 ng·h/mL; Tmax [8]: 6 h; Cmax [9]: 2160 ng/mL; bioavailability [10]: 34%; inhibition [11]: Active; inhibition [12]: Active; inhibition [1]: Active; Activity [13]: inactive; inhibition [14]: Active; inhibition [15]: Active; inhibition [16]: Active; inhibition [17]: Active; inhibition [18]: Active

**Q.** With `COc1ccc(OC)c(-c2ccc(NC(=O)c3ccncc3F)cc2)c1` as the molecule, how does the clearance [2] read?
**A.** The clearance was 34.4 mL/min/kg.

**Q.** And the Vd [3]?
**A.** Its Vd is 2.4 L/kg.

**Q.** And the half-life [4]?
**A.** The half-life was 5.2 h.

**Q.** And the half-life [5]?
**A.** Its half-life is 2.5 h.

**Q.** And the AUC(0-inf) [6]?
**A.** Its AUC(0-inf) is 969 ng·h/mL.

**Q.** What about the AUC(0-inf) [7] of the same molecule?
**A.** Its AUC(0-inf) is 2000 ng·h/mL.

**Q.** And the Tmax [8]?
**A.** Its Tmax is 3.3 h.

**Q.** And the Cmax [9]?
**A.** Its Cmax is 257 ng/mL.

**Q.** And the bioavailability [10]?
**A.** Its bioavailability is 20.6%.

**Q.** What about the Activity [13] of the same molecule?
**A.** Its Activity is “inactive”.

**Q.** And the inhibition [14]?
**A.** The inhibition was “Active”.

**Q.** What about the inhibition [16] of the same molecule?
**A.** Its inhibition is “Active”.

**Q.** With `COc1ccc(-c2ccc(NC(=O)c3c(F)cccc3F)nc2)cc1OC` as the molecule, how does the inhibition [18] read?
**A.** Its inhibition is “Active”.

**Q.** For `O=C(Nc1ccc(NC(=O)c2c(F)cccc2F)cc1)c1cncc(F)c1`, which inhibition [18] is on record?
**A.** The inhibition was “Active”.

**Q.** With `O=C(Nc1ccc(-c2ccco2)cn1)c1c(F)cccc1F` as the molecule, how does the inhibition [1] read?
**A.** Its inhibition is “Active”.

**Q.** And the inhibition [18]?
**A.** Its inhibition is “Active”.
